In paper PMC8524809 (Molecular Therapy, 2021):

Tests used:
[1] = cited from earlier work
[2] = in vitro; details: human

## CC(C)(O)c1ccccc1CC[C@@H](SCC1(CC(=O)O)CC1)c1cccc(/C=C/c2ccc3ccc(Cl)cc3n2)c1 [montelukast]
[1]; all doses 10 mg/day to 200 mg/day, ref 23 (Altman et al.)
  Side effects / tolerability: no significant clinical or laboratory side effects
[1]; high doses (i.e., 200 mg/day)
  Toxicity tolerance: toxicity tolerance is high
[2]
  viability: 86 to 90%
